Test results: the kinase profiling compilation of Christmann-Franck et al. (2016)

What was measured:
Test in all cases: radiometric filter-binding kinase assay, Kinase HotSpot
Conditions in all cases: compound 0.5 µM; ATP 10 µM
[1] = biological target: TAOK2 (human) (UniProt Q9UL54)
[2] = biological target: CSNK2A1 (human) (UniProt P68400)
[3] = biological target: JAK2 JH1 JH2 (human) (UniProt O60674)
[4] = biological target: MAPKAPK2 (human) (UniProt P49137)
[5] = biological target: MST4 (human) (UniProt Q9P289)
Chain of MST4 (human) (Q9P289 whole entry, looked up): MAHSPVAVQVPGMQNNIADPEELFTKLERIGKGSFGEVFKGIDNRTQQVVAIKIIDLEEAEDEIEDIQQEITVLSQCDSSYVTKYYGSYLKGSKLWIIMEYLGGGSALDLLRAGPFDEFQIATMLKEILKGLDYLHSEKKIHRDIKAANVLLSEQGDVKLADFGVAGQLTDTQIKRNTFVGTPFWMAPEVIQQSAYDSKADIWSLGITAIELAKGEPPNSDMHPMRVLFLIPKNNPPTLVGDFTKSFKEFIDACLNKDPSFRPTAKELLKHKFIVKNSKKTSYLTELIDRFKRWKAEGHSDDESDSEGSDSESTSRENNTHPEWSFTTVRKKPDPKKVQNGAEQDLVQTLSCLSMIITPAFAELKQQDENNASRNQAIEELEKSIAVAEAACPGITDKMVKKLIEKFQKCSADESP

[6] = biological target: MERTK (human) (UniProt Q12866)
[7] = biological target: CSNK1E (human) (UniProt P49674)
[8] = biological target: HIPK1 (human) (UniProt Q86Z02)
[9] = biological target: FGFR3 (human) (UniProt P22607)
[10] = biological target: HIPK3 (human) (UniProt Q9H422)
[11] = biological target: DDR2 (human) (UniProt Q16832)
[12] = biological target: PHKG2 (human) (UniProt P15735)
[13] = biological target: CDK6 CCND1 (human) (UniProt Q00534+P24385)
Chain of CDK6 CCND1 (human) (P24385 whole entry, looked up): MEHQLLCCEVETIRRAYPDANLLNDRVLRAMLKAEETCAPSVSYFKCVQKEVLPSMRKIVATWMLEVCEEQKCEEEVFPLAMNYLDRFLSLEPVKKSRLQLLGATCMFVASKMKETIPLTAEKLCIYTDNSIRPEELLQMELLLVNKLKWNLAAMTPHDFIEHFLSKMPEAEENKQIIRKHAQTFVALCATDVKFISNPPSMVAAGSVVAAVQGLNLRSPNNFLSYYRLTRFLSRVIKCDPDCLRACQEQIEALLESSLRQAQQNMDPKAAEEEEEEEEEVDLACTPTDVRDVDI
Chain of CDK6 CCND1 (human) (Q00534 whole entry, looked up): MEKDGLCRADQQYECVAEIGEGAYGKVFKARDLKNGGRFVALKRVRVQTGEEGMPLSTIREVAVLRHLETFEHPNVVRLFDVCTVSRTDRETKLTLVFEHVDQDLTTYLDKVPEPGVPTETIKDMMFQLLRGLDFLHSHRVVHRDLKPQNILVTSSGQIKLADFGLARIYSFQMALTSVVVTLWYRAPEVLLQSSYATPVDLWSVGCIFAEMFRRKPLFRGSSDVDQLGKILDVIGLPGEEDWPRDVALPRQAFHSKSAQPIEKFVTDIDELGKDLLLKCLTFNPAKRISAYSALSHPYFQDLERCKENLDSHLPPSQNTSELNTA

[14] = biological target: PRKCE (human) (UniProt Q02156)
Chain of PRKCE (human) (Q02156 whole entry, looked up): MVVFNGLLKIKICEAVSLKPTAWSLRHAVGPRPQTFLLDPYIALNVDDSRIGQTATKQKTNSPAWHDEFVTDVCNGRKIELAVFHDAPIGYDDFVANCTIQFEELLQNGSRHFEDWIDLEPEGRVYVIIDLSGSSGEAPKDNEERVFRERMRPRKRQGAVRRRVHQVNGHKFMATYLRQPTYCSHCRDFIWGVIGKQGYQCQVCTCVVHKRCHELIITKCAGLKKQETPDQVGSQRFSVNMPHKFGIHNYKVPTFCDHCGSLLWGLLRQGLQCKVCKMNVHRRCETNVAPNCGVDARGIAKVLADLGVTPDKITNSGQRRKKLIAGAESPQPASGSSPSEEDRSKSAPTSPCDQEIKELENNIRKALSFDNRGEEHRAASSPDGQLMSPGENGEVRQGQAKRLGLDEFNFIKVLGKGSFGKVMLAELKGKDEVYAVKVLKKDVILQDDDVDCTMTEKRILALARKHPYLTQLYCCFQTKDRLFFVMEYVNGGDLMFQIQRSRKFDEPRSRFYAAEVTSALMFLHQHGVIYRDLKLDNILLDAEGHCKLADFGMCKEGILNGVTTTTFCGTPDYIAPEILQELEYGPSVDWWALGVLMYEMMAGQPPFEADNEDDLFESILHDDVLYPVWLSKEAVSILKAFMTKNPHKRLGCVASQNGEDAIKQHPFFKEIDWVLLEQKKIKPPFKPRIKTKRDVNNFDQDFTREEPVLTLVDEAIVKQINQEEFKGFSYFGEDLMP

[15] = biological target: STK11 (human) (UniProt Q15831)
[16] = biological target: CAMK1G (human) (UniProt Q96NX5)
[17] = biological target: CSNK1G1 (human) (UniProt Q9HCP0)
[18] = biological target: PRKCD (human) (UniProt Q05655)
[19] = biological target: FGFR4 (human) (UniProt P22455)
[20] = biological target: CSNK1D (human) (UniProt P48730)
[21] = biological target: NEK3 (human) (UniProt P51956)
[22] = biological target: PNCK (human) (UniProt Q6P2M8)
[23] = biological target: NEK11 (human) (UniProt Q8NG66)
[24] = biological target: MAP3K8 (human) (UniProt P41279)
Chain of MAP3K8 (human) (P41279 whole entry, looked up): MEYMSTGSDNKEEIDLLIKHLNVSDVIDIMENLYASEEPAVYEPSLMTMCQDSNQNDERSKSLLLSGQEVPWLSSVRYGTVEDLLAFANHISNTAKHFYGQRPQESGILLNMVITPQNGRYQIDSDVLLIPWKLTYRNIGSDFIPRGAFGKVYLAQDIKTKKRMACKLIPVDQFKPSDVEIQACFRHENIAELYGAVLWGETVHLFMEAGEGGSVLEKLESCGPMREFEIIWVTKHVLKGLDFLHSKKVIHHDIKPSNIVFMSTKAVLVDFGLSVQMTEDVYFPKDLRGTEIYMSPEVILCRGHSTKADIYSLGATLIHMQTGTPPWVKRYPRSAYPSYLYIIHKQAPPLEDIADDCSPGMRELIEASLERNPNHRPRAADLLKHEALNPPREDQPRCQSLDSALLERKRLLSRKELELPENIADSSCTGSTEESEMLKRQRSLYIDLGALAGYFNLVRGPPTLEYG

[25] = biological target: MLTK (human) (UniProt Q9NYL2)
[26] = biological target: PAK6 (human) (UniProt Q9NQU5)
Chain of PAK6 (human) (Q9NQU5 whole entry, looked up): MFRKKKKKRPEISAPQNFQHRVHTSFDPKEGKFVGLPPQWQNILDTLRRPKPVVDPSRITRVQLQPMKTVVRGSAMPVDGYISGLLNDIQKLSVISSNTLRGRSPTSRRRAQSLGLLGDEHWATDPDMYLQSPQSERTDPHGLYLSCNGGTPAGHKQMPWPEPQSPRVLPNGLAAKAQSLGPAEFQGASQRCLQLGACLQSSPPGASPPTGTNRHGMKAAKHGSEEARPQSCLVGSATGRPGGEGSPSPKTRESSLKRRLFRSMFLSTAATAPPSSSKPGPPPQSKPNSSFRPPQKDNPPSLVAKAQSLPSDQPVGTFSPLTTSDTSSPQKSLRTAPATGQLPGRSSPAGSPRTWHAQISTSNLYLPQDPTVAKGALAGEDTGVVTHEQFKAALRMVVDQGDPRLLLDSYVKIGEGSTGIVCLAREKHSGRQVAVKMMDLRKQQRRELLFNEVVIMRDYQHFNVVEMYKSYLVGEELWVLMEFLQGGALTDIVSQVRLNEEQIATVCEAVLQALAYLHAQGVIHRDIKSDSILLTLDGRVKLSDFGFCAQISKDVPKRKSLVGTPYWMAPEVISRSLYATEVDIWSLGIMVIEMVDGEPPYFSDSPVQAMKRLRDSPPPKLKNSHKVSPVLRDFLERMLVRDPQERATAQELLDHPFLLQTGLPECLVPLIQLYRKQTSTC

[27] = biological target: NLK (human) (UniProt Q9UBE8)
[28] = biological target: PAK3 (human) (UniProt O75914)
[29] = biological target: ROS1 (human) (UniProt P08922)
[30] = biological target: SYK (human) (UniProt P43405)
[31] = biological target: PLK1 (human) (UniProt P53350)
[32] = biological target: CLK3 (human) (UniProt P49761)
[33] = biological target: YES1 (human) (UniProt P07947)
Chain of YES1 (human) (P07947 whole entry, looked up): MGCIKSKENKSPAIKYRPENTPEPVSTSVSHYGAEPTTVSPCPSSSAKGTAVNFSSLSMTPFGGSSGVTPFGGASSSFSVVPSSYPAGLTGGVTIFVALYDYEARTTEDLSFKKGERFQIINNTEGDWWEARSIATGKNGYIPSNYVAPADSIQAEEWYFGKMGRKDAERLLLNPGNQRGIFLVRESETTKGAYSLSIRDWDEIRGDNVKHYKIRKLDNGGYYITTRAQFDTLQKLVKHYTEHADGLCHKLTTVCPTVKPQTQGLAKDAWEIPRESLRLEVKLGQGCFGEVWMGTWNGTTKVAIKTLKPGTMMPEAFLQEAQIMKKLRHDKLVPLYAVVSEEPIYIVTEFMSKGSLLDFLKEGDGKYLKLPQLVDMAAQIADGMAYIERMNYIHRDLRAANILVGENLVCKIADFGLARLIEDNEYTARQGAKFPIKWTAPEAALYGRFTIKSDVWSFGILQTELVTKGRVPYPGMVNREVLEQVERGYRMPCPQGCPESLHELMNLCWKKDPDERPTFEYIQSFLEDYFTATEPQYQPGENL

[34] = biological target: DYRK2 (human) (UniProt Q92630)
Chain of DYRK2 (human) (Q92630 whole entry, looked up): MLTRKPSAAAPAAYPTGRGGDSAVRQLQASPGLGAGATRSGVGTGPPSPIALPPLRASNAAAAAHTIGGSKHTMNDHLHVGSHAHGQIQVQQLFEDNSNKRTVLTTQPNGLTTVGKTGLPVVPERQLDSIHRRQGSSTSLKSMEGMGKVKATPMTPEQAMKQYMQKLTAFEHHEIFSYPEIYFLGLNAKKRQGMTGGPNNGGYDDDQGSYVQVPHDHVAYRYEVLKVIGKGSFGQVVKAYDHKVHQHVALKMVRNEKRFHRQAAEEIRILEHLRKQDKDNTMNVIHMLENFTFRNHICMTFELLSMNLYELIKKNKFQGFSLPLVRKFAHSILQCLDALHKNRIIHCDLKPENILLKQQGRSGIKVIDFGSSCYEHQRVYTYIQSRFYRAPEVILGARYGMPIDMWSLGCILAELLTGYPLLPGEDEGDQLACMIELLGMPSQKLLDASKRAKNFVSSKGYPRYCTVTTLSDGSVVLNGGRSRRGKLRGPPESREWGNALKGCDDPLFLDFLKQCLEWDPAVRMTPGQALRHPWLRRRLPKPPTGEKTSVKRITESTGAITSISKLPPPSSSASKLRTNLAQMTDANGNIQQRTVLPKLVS

[35] = biological target: DSTYK (human) (UniProt Q6XUX3)
[36] = biological target: EPHA1 (human) (UniProt P21709)
[37] = biological target: KIT (human) (UniProt P10721)
[38] = biological target: NTRK3 (human) (UniProt Q16288)
Chain of NTRK3 (human) (Q16288 whole entry, looked up): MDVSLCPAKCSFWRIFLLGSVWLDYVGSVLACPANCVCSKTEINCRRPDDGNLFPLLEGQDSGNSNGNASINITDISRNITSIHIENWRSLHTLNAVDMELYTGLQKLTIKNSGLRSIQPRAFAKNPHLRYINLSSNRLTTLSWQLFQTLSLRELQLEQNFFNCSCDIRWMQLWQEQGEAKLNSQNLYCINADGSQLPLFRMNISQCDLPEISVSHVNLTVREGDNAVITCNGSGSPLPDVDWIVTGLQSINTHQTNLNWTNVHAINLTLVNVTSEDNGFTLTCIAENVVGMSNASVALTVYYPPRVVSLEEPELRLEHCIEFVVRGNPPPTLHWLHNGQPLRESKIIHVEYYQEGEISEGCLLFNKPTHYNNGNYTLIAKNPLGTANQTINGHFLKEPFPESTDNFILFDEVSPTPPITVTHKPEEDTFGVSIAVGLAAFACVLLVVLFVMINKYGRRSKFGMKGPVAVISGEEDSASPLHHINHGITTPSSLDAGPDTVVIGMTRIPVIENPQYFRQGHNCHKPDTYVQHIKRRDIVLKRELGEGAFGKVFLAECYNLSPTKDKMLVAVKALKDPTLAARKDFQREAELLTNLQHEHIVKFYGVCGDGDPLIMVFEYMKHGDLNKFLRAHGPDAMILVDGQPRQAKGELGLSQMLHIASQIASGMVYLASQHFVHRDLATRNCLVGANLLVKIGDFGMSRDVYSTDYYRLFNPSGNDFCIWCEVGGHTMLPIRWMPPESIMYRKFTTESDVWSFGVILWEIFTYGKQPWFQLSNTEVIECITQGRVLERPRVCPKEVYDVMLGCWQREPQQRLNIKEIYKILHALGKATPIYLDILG

[39] = biological target: MAPK1 (human) (UniProt P28482)
[40] = biological target: BRSK2 (human) (UniProt Q8IWQ3)
[41] = biological target: ERBB4 (human) (UniProt Q15303)
[42] = biological target: EPHB4 (human) (UniProt P54760)

Compound: O=C(c1ccccc1)c1ccc(N2CCOCC2)cc1O
- residual activity [1]: 107%
- residual activity [2]: 91.1%
- residual activity [3]: 94.1%
- residual activity [4]: 102%
- residual activity [5]: 101%
- residual activity [6]: 94.5%
- residual activity [7]: 97.7%
- residual activity [8]: 104%
- residual activity [9]: 104%
- residual activity [10]: 98.1%
- residual activity [11]: 103%
- residual activity [12]: 101%
- residual activity [13]: 97.8%
- residual activity [14]: 92.3%
- residual activity [15]: 104%
- residual activity [16]: 96.1%
- residual activity [17]: 105%
- residual activity [18]: 98.8%
- residual activity [19]: 106%
- residual activity [20]: 100%
- residual activity [21]: 95.6%
- residual activity [22]: 101%
- residual activity [23]: 97.7%
- residual activity [24]: 99.6%
- residual activity [25]: 95%
- residual activity [26]: 93.6%
- residual activity [27]: 97.3%
- residual activity [28]: 99.4%
- residual activity [29]: 96%
- residual activity [30]: 96.6%
- residual activity [31]: 104%
- residual activity [32]: 90.2%
- residual activity [33]: 103%
- residual activity [34]: 96.8%
- residual activity [35]: 86.2%
- residual activity [36]: 89.1%
- residual activity [37]: 96.2%
- residual activity [38]: 93.7%
- residual activity [39]: 96.7%
- residual activity [40]: 95.5%
- residual activity [41]: 102%

Compound: COc1cccc(-c2cc(=O)c3ccccc3o2)c1N
- residual activity [1]: 96%
- residual activity [2]: 94.9%
- residual activity [3]: 104%
- residual activity [4]: 102%
- residual activity [5]: 110%
- residual activity [6]: 98%
- residual activity [7]: 97.5%
- residual activity [8]: 104%
- residual activity [9]: 91%
- residual activity [10]: 101%
- residual activity [42]: 101%
- residual activity [11]: 92%
- residual activity [12]: 117%
- residual activity [13]: 95.5%
- residual activity [14]: 82.4%
- residual activity [15]: 101%
- residual activity [16]: 96.5%
- residual activity [17]: 83.5%
- residual activity [18]: 106%
- residual activity [19]: 104%
- residual activity [20]: 99.1%
- residual activity [21]: 102%
- residual activity [22]: 96.8%
- residual activity [23]: 92.9%
- residual activity [24]: 85.7%
- residual activity [25]: 103%
- residual activity [26]: 95.5%
- residual activity [27]: 96.4%
- residual activity [28]: 90.7%
- residual activity [29]: 97.5%
- residual activity [30]: 97.2%
- residual activity [31]: 88.2%
- residual activity [32]: 95.4%
- residual activity [33]: 93.5%
- residual activity [34]: 92.5%
- residual activity [35]: 97.1%
- residual activity [36]: 99.7%
- residual activity [37]: 92.2%
- residual activity [38]: 99.3%
- residual activity [39]: 97.1%
- residual activity [40]: 98%
- residual activity [41]: 94.7%

Compound: O=c1c(-c2ccc(F)cc2)c(-c2ccncc2)[nH]n1-c1ccc(Cl)cc1
- residual activity [1]: 101%
- residual activity [2]: 95.3%
- residual activity [3]: 95.1%
- residual activity [4]: 98.5%
- residual activity [5]: 94.1%
- residual activity [6]: 82.7%
- residual activity [7]: 35%
- residual activity [9]: 88.1%
- residual activity [10]: 101%
- residual activity [42]: 97.2%
- residual activity [11]: 90.6%
- residual activity [12]: 121%
- residual activity [13]: 92.3%
- residual activity [14]: 96.7%
- residual activity [15]: 98.8%
- residual activity [16]: 104%
- residual activity [17]: 83.4%
- residual activity [18]: 92.6%
- residual activity [19]: 92.4%
- residual activity [20]: 26.7%
- residual activity [21]: 100%
- residual activity [22]: 92%
- residual activity [23]: 104%
- residual activity [24]: 87.1%
- residual activity [25]: 91.2%
- residual activity [26]: 73.5%
- residual activity [27]: 16%
- residual activity [28]: 98.3%
- residual activity [29]: 97.6%
- residual activity [30]: 98.9%
- residual activity [31]: 98.3%
- residual activity [32]: 88.7%
- residual activity [33]: 85.1%
- residual activity [34]: 86.9%
- residual activity [35]: 92.9%
- residual activity [36]: 93.1%
- residual activity [37]: 94.9%
- residual activity [38]: 99.2%
- residual activity [39]: 77.3%
- residual activity [40]: 90.8%
- residual activity [41]: 73.2%
